# Test results from patent EP0745599A2, “1-(3-Heterocyclylphenyl)-s-triazine-2,4,6-oxo or thiotrione herbicidal agents” (American Cyanamid Company, priority 1995, dated 1996).
# Assays:
# Format in all cases: in vivo
# Settings in all cases: rated four to five weeks after treatment
# [1] = tested on: AMBROSIA ARTEMISIIFOLIA, L.; test: Preemergence herbicidal evaluation, AMBEL (Ragweed, Common); set-up: key to AMBEL: visual rating scale 0-9 vs control
# Excerpt: (§1) Results of herbicide evaluation are expressed on a rating scale (0-9). The scale is based upon a visual observation of plant stand, vigor, malformation, size, chlorosis and overall plant appearance as compared with a control.
# (§2) The preemergence herbicidal activity of the test compounds of the present invention is exemplified by the following tests in which the seeds of a variety of monocotyledonous and dicotyledonous plants are separately mixed with potting soil and planted on top of approximately one inch of soil in separate pint cups. After planting, the cups are sprayed with the selected aqueous acetone solution containing test compound in sufficient quantity to provide the equivalent of about 0.125 to 0.50 kg per hectare of test compound per cup. The treated cups are then placed on greenhouse benches, watered and cared for in accordance with conventional greenhouse procedures. From four to five weeks after treatment, the tests are terminated and each cup is examined and rated according to the rating system provided in Example 42.
# [2] = tested on: TRITICUM AESTIVUM, CV. APOLLO; test: Preemergence herbicidal evaluation, TRZAWO (Wheat, Winter, CV. APOLLO); set-up: key to TRZAWO: visual rating scale 0-9 vs control
# Excerpt: as §1, §2
# [3] = tested on: CASSIA OBTUSIFOLIA, L.; test: Preemergence herbicidal evaluation, CASOB (Sicklepod); set-up: key to CASOB: visual rating scale 0-9 vs control
# Excerpt: as §1, §2
# [4] = tested on: CHENOPODIUM ALBUM, L.; test: Preemergence herbicidal evaluation, CHEAL (Lambsquarters, Common); set-up: key to CHEAL: visual rating scale 0-9 vs control
# Excerpt: as §1, §2
# [5] = tested on: ABUTILON THEOPHRASTI, MEDIC.; test: Preemergence herbicidal evaluation, ABUTH (Velvetleaf); set-up: key to ABUTH: visual rating scale 0-9 vs control
# Excerpt: as §1, §2
# [6] = tested on: ECHINOCHLOA CRUS-GALLI, (L) BEAU; test: Postemergence herbicidal evaluation, ECHCG (Barnyardgrass)
# Protocol: (§3) In the tests, seedling plants are grown in jiffy flats for about two weeks. The test compounds are dispersed in 50/50 acetone/water mixtures containing 0.5% TWEEN®20, a polyoxyethylene sorbitan monolaurate surfactant of Atlas Chemical Industries, in sufficient quantities to provide the equivalent of about 0.125 kg to 0.500 kg per hectare of active compound when applied to the plants through a spray nozzle operating at 40 psi for a predetermined time. After spraying, the plants are placed on greenhouse benches and are cared for in the usual manner, commensurate with conventional greenhouse practices. From four to five weeks after treatment, the seedling plants are examined and rated according to the rating system set forth below. Where more than one test is involved for a given compound, the data are averaged.
# as §1
# [7] = tested on: GLYCINE MAX(L)MERR. CV. WILLIAMS; test: Preemergence herbicidal evaluation, GLXMAW (Soybean, Williams); set-up: key to GLXMAW: visual rating scale 0-9 vs control
# Excerpt: as §1, §2
# [8] = tested on: SETARIA VIRIDIS, (L) BEAU; test: Postemergence herbicidal evaluation, SETVI (Foxtail, Green)
# Protocol: as §3, §1
# [9] = tested on: GALIUM APARINE; test: Preemergence herbicidal evaluation, GALAP (Galium); set-up: key to GALAP: visual rating scale 0-9 vs control
# Excerpt: as §1, §2
# [10] = tested on: SETARIA VIRIDIS, (L) BEAU; test: Preemergence herbicidal evaluation, SETVI (Foxtail, Green); set-up: key to SETVI: visual rating scale 0-9 vs control
# Excerpt: as §1, §2
# [11] = tested on: ECHINOCHLOA CRUS-GALLI, (L) BEAU; test: Preemergence herbicidal evaluation, ECHCG (Barnyardgrass); set-up: key to ECHCG: visual rating scale 0-9 vs control
# Excerpt: as §1, §2
# [12] = tested on: ZEA MAYS L.; test: Preemergence herbicidal evaluation, ZEAMX (Corn, Field); set-up: key to ZEAMX: visual rating scale 0-9 vs control
# Excerpt: as §1, §2
# [13] = tested on: IPOMOEA SPP.; test: Preemergence herbicidal evaluation, IPOSS (Morningglory Spp.); set-up: key to IPOSS: visual rating scale 0-9 vs control
# Excerpt: as §1, §2
# [14] = tested on: ORYZA SATIVA, L. TEBONNET; test: Preemergence herbicidal evaluation, ORYSAT (Rice, Tebonnet); set-up: key to ORYSAT: visual rating scale 0-9 vs control
# Excerpt: as §1, §2
# [15] = tested on: TRITICUM AESTIVUM, CV. APOLLO; test: Postemergence herbicidal evaluation, TRZAWO (Wheat, Winter, CV. APOLLO)
# Protocol: as §3, §1
# [16] = tested on: CASSIA OBTUSIFOLIA, L.; test: Postemergence herbicidal evaluation, CASOB (Sicklepod)
# Protocol: as §3, §1
# [17] = tested on: ORYZA SATIVA, L. TEBONNET; test: Postemergence herbicidal evaluation, ORYSAT (Rice, Tebonnet)
# Protocol: as §3, §1
structure (smiles),measurement,setting,value
"CC(C)OC(=O)Cn1c(=O)n(C)c(=O)n(-c2cc(N3C(=O)C4C[S+]([O-])CCN4C3=O)c(F)cc2Cl)c1=O (stereo not drawn) [Compound 14, Isopropyl 3-[2-chloro-4-fluoro-5-(tetra-hydro-1,3,7-trioxo-1H-imidazo[5,1-c][1,4]-thiazin-2(3H)-yl)phenyl]tetrahydro-5-methyl-2,4,6-trioxo-s-triazine-1(2H)-acetate]",AMBEL,[1]; Rate 0.125 kg/ha,0.0
same,AMBEL,[1]; Rate 0.250 kg/ha,2.0
same,AMBEL,[1]; Rate 0.500 kg/ha,3.0
same,TRZAWO,[2]; Rate 0.125 kg/ha,0.0
same,TRZAWO,[2]; Rate 0.250 kg/ha,1.0
same,TRZAWO,[2]; Rate 0.500 kg/ha,2.0
same,CASOB,[3]; Rate 0.125 kg/ha,2.0
same,CASOB,[3]; Rate 0.250 kg/ha,2.0
same,CASOB,[3]; Rate 0.500 kg/ha,4.0
same,CHEAL,[4]; Rate 0.125 kg/ha,7.0
same,CHEAL,[4]; Rate 0.250 kg/ha,6.0
same,CHEAL,[4]; Rate 0.500 kg/ha,9.0
same,ABUTH,[5]; Rate 0.125 kg/ha,0.0
same,ABUTH,[5]; Rate 0.250 kg/ha,0.0
same,ABUTH,[5]; Rate 0.500 kg/ha,4.0
same,Herbicide rating (0-9) ECHCG,[6]; 0.125 kg/ha,0.0
same,Herbicide rating (0-9) ECHCG,[6]; 0.250 kg/ha,0.0
same,Herbicide rating (0-9) ECHCG,[6]; 0.500 kg/ha,0.0
same,GLXMAW,[7]; Rate 0.125 kg/ha,0.0
same,GLXMAW,[7]; Rate 0.250 kg/ha,0.0
same,GLXMAW,[7]; Rate 0.500 kg/ha,0.0
same,Herbicide rating (0-9) SETVI,[8]; 0.125 kg/ha,1.0
same,Herbicide rating (0-9) SETVI,[8]; 0.250 kg/ha,1.0
same,Herbicide rating (0-9) SETVI,[8]; 0.500 kg/ha,1.0
same,GALAP,[9]; Rate 0.125 kg/ha,7.0
same,GALAP,[9]; Rate 0.250 kg/ha,7.0
same,GALAP,[9]; Rate 0.500 kg/ha,9.0
same,SETVI,[10]; Rate 0.125 kg/ha,0.0
same,SETVI,[10]; Rate 0.250 kg/ha,0.0
same,SETVI,[10]; Rate 0.500 kg/ha,1.0
same,ECHCG,[11]; Rate 0.125 kg/ha,0.0
same,ECHCG,[11]; Rate 0.250 kg/ha,0.0
same,ECHCG,[11]; Rate 0.500 kg/ha,0.0
same,ZEAMX,[12]; Rate 0.125 kg/ha,0.0
same,ZEAMX,[12]; Rate 0.250 kg/ha,0.0
same,ZEAMX,[12]; Rate 0.500 kg/ha,1.0
same,IPOSS,[13]; Rate 0.125 kg/ha,0.0
same,IPOSS,[13]; Rate 0.250 kg/ha,1.0
same,IPOSS,[13]; Rate 0.500 kg/ha,3.0
same,ORYSAT,[14]; Rate 0.125 kg/ha,0.0
same,ORYSAT,[14]; Rate 0.250 kg/ha,2.0
same,ORYSAT,[14]; Rate 0.500 kg/ha,4.0
same,Herbicide rating (0-9) TRZAWO,[15]; 0.125 kg/ha,2.0
same,Herbicide rating (0-9) TRZAWO,[15]; 0.250 kg/ha,2.0
same,Herbicide rating (0-9) TRZAWO,[15]; 0.500 kg/ha,2.0
same,Herbicide rating (0-9) CASOB,[16]; 0.125 kg/ha,5.0
same,Herbicide rating (0-9) CASOB,[16]; 0.250 kg/ha,5.0
same,Herbicide rating (0-9) CASOB,[16]; 0.500 kg/ha,5.0
"C#CCn1c(=O)n(CC=C)c(=O)n(-c2cc(N3C(=O)C4=C(CCCC4)C3=O)c(F)cc2Cl)c1=O [Compound 20, N-{5-[3-Allylhexahydro-2,4,6-trioxo-5-(2-propynyl)-s-triazin-1-yl]-4-chloro-2-fluoro-phenyl}-1-cyclohexene-1,2-dicarboximide]",Herbicide rating (0-9) ORYSAT,[17]; 0.125 kg/ha,2.0
same,Herbicide rating (0-9) ORYSAT,[17]; 0.250 kg/ha,2.0
same,Herbicide rating (0-9) ORYSAT,[17]; 0.500 kg/ha,2.0
same,Herbicide rating (0-9) ECHCG,[6]; 0.125 kg/ha,0.0
same,Herbicide rating (0-9) ECHCG,[6]; 0.250 kg/ha,0.0
same,Herbicide rating (0-9) ECHCG,[6]; 0.500 kg/ha,0.0
same,Herbicide rating (0-9) SETVI,[8]; 0.125 kg/ha,0.0
same,Herbicide rating (0-9) SETVI,[8]; 0.250 kg/ha,0.0
same,Herbicide rating (0-9) SETVI,[8]; 0.500 kg/ha,0.0
